Assay results taken from patent US20260008818A1, “CYCLIC PEPTIDE OR SALT THEREOF, AND USES THEREOF” (FUJIFILM Corporation, priority 2023, published 2026).
Numbered stars: 1 amine (or outer) side, 2 acyl side, 3 side chain; on linkers, the order of the positions; unused ones are H or OH. Bridge positions count the residues as written; N and C are the ends. Ends that are not written are not given here. acetyl = K(acetyl): lysine side chain modified with a haloacetyl group whose halogen is replaced by the thiol of another residue, giving a thioether ring, O=C(C[*:1])[*:2]; COCH2 = acetyl group that carries the bridge

System: Recombinant Human FGFR1 alpha (IIIc) Fc Chimera Protein
Assay: Binding affinity of enzymatically synthesized cyclic peptide to FGFR by ELISA
Conditions: luminescence signal at reaction concentration 10 nmol/L, SEQ ID NO: 39 standardized to 1, enzyme synthesis product
In short: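 Graded A–D from luminescence at 10 nmol/L peptide, expressed relative to SEQ ID NO: 39 after subtracting wells lacking receptor. Read-out used anti-Myc antibody (2 h, RT) with chemiluminescent substrate, following 3 h RT binding of peptide to immobilized FGFR1α(IIIc)-Fc, 5 ng per well.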

Substance | Evaluation result of binding affinity to FGFR
257 (VCPLTLQGWQAPFWVVK(COCH2)E; thioether 2-17 (inferred)) [compound 257] | C (0.1 or more and less than 0.5)
235 (HK(COCH2)TWERLIFRGHIAPFWVCR; thioether 2-19 (inferred)) [compound 235] | A (0.7 or more)
49 (HCEWTQLIYYGFSAPYIVK(COCH2)R; thioether 2-19 (inferred)) [compound 49] | C (0.1 or more and less than 0.5)
151 (HCSYERLWFHGHEAPFRVK(COCH2)V; thioether 2-19 (inferred)) [compound 151] | A (0.7 or more)
34 (CRALLRGAPFHLAEC; disulfide 1-15) [compound 34] | D (less than 0.1)
72 (FCSYERLQFHGHEAPFRVK(COCH2)V; thioether 2-19 (inferred)) [compound 72] | A (0.7 or more)
319 (HCTWERLIFQGHIAPFWVK(COCH2)R; thioether 2-19 (inferred)) [compound 319] | C (0.1 or more and less than 0.5)
172 (HCSYERLQFSGHEAPFRVK(COCH2)V; thioether 2-19 (inferred)) [compound 172] | B (0.5 or more and less than 0.7)
348 (PCTGWTPLYFFGKRAPFLVNK(COCH2)A; thioether 2-21) [compound 348] | C (0.1 or more and less than 0.5)
159 (HCSYERLQIHGHEAPFRVK(COCH2)V; thioether 2-19 (inferred)) [compound 159] | C (0.1 or more and less than 0.5)
90 (HCNYERLQFHGHEAPFRVKV; not fully specified; Description of Artificial Sequence: Cyclic peptide) [compound 90] | A (0.7 or more)
192 (HCSYERLQFHGHEAPFIVK(COCH2)V; thioether 2-19 via Ac) [compound 192] | A (0.7 or more)
81 (RCSYERLQFHGHEAPFRVKV; not fully specified; Description of Artificial Sequence: Cyclic peptide) [compound 81] | A (0.7 or more)
269 (VCYEQLVVWGHIAPFLTK(COCH2)H; thioether 2-18 (inferred)) [compound 269] | C (0.1 or more and less than 0.5)
239 (HK(COCH2)TWERLIFLGHIAPFLVCR; thioether 2-19 (inferred)) [compound 239] | B (0.5 or more and less than 0.7)
240 (HK(COCH2)TWERLIFLGHIAPFHVCR; thioether 2-19 (inferred)) [compound 240] | A (0.7 or more)
204 (HCSYERLQFHGHEAPFRFK(COCH2)V; thioether 2-19 via Ac; not fully specified) [compound 204] | C (0.1 or more and less than 0.5)
281 (FCTIQQLILVNHRAPFWVK(COCH2)T; thioether 2-19 (inferred)) [compound 281] | B (0.5 or more and less than 0.7)
230 (HK(COCH2)QWERLIFLGHIAPFWVCR; thioether 2-19 (inferred)) [compound 230] | B (0.5 or more and less than 0.7)
160 (HCSYERLQVHGHEAPFRVK(COCH2)V; thioether 2-19 (inferred)) [compound 160] | C (0.1 or more and less than 0.5)
338 (PCLAPYGWVILDWGLVSNWK(COCH2)Y; thioether 2-20 (inferred)) [compound 338] | C (0.1 or more and less than 0.5)
212 (HCSYERLQFHGHEAPFRVK(COCH2)I; thioether 2-19 via Ac; not fully specified) [compound 212] | A (0.7 or more)
304 (HCSYERLQFHMHEAPFRVK(COCH2)V; thioether 2-19 (inferred)) [compound 304] | C (0.1 or more and less than 0.5)
92 (HCTYERLQFHGHEAPFRVK(COCH2)V; thioether 2-19 via acetyl; not fully specified; printed as H-(C)-TYERLQFHGHEAPFRV-(K(acetyl))-V) [compound 92] | A (0.7 or more)
188 (HCSYERLQFHGHDAPFRVK(COCH2)V; thioether 2-19 via Ac) [compound 188] | A (0.7 or more)
302 (HCSYERLQMHGHEAPFRVK(COCH2)V; thioether 2-19 (inferred)) [compound 302] | B (0.5 or more and less than 0.7)
193 (HCSYERLQFHGHEAPFVVK(COCH2)V; thioether 2-19 via Ac) [compound 193] | A (0.7 or more)

The remaining lines, values ahead:

Evaluation result of binding affinity to FGFR | Substance
C (0.1 or more and less than 0.5) | 104 (HCSHERLQFHGHEAPFRVK(COCH2)V; thioether 2-19 (inferred)) [compound 104]
A (0.7 or more) | 168 (HCSYERLQFYGHEAPFRVK(COCH2)V; thioether 2-19 (inferred)) [compound 168]
C (0.1 or more and less than 0.5) | 208 (HCSYERLQFHGHEAPFRTK(COCH2)V; thioether 2-19 via Ac; not fully specified) [compound 208]
C (0.1 or more and less than 0.5) | 350 (LCSITRIQLFGYHAPFWHVVK(COCH2)S; thioether 2-21) [compound 350]
B (0.5 or more and less than 0.7) | 290 (HCSYERLQFHGHKAPFRVK(COCH2)V; thioether 2-19 (inferred)) [compound 290]
C (0.1 or more and less than 0.5) | 141 (HCSYEHLQFHGHEAPFRVK(COCH2)V; thioether 2-19 (inferred)) [compound 141]
A (0.7 or more) | 236 (HK(COCH2)TWERLIFQGHIAPFWVCR; thioether 2-19 (inferred)) [compound 236]
A (0.7 or more) | 77 (SCSYERLQFHGHEAPFRVK(COCH2)V; thioether 2-19 (inferred)) [compound 77]
C (0.1 or more and less than 0.5) | 220 (HCSYERLQFHGHEAPFRVK(COCH2)D; thioether 2-19 (inferred)) [compound 220]
C (0.1 or more and less than 0.5) | 363 (TCSILKHPWGAPFLVK(COCH2)T; thioether 2-16) [compound 363]
C (0.1 or more and less than 0.5) | 55 (HCASYERLQFHGHEAPFRVK(COCH2)V; thioether 2-20 (inferred)) [compound 55]
A (0.7 or more) | 166 (HCSYERLQFVGHEAPFRVK(COCH2)V; thioether 2-19 (inferred)) [compound 166]
B (0.5 or more and less than 0.7) | 352 (ICINRLSQGTHFAPFWLVEYK(COCH2)N; thioether 2-21) [compound 352]
D (less than 0.1) | 35 (CDRTLLYYRLSC; disulfide 1-12 (inferred)) [compound 35]
A (0.7 or more) | 189 (HCSYERLQFHGHRAPFRVK(COCH2)V; thioether 2-19 via Ac) [compound 189]
B (0.5 or more and less than 0.7) | 162 (HCSYERLQWHGHEAPFRVK(COCH2)V; thioether 2-19 (inferred)) [compound 162]
A (0.7 or more) | 54 (HCYERLQFHGHEAPFRVK(COCH2)V; thioether 2-18 (inferred)) [compound 54]
C (0.1 or more and less than 0.5) | 277 (QCYVQLYVWGHPAPFYWDK(COCH2)I; thioether 2-19 (inferred)) [compound 277]
C (0.1 or more and less than 0.5) | 344 (RCQPFVQLVFRSLLAPFLVK(COCH2)H; thioether 2-20) [compound 344]
B (0.5 or more and less than 0.7) | 123 (HCSYIRLQFHGHEAPFRVK(COCH2)V; thioether 2-19 (inferred)) [compound 123]
C (0.1 or more and less than 0.5) | 282 (TCQWEQLRIGPHLAPFRSK(COCH2)R; thioether 2-19 (inferred)) [compound 282]
C (0.1 or more and less than 0.5) | 342 (NCIPFWWQQHWWQYPVRVVK(COCH2)T; thioether 2-20) [compound 342]
B (0.5 or more and less than 0.7) | 229 (HK(COCH2)VWERLIFLGHIAPFWVCR; thioether 2-19 (inferred)) [compound 229]
B (0.5 or more and less than 0.7) | 238 (HK(COCH2)TWERLIFLGHVAPFWVCR; thioether 2-19 (inferred)) [compound 238]
A (0.7 or more) | 264 (ACQWGRWALQGHQVPFLTK(COCH2)I; thioether 2-19 (inferred)) [compound 264]
B (0.5 or more and less than 0.7) | 51 (KCWQQLSFVGHIAPFVYK(COCH2)Y; thioether 2-18 (inferred)) [compound 51]
C (0.1 or more and less than 0.5) | 46 (ACWVQYLWHGHAAPFLIK(COCH2)S; thioether 2-18 (inferred)) [compound 46]
C (0.1 or more and less than 0.5) | 244 (NCWGWAYPIPFRK(COCH2)V; thioether 2-13 (inferred)) [compound 244]
